Source: patent US20230391739A1, “ARYL DERIVATIVES FOR TREATING TRPM3 MEDIATED DISORDERS” (Katholieke Universiteit Leuven, priority 2020, published 2023)

Target: T1, mouse TRPM3α2 (mTRPM3) ion channel (Mus musculus, UniProt J9SQF3)
T1 construct: expressed in transfected cells; host or cells: flip-in HEK293
Assay: TRPM3 ion channel driven Ca2+ uptake, Fluo-4 AM assay, PS-stimulated (mTRPM3)
Type: cell-based
Settings: TRPM3 overexpressing flip-in HEK293 cells stimulated with Pregnenolone sulfate (PS) 50 μM, activity ranges A, B, C
Outline: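 Flp-In HEK293 cells overexpressing mTRPM3α2 were added, in Ca²⁺-free Krebs, to wells already holding compound and 50 μM pregnenolone sulfate in Ca²⁺-containing Krebs. Fluo-4 AM fluorescence (ex 485/em 535 nm) was read immediately. Percent inhibition was computed from RFU relative to PS/vehicle wells and a positive-control inhibitor.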

T1 sequence (J9SQF3 1-1709 isoform J9SQF3-12): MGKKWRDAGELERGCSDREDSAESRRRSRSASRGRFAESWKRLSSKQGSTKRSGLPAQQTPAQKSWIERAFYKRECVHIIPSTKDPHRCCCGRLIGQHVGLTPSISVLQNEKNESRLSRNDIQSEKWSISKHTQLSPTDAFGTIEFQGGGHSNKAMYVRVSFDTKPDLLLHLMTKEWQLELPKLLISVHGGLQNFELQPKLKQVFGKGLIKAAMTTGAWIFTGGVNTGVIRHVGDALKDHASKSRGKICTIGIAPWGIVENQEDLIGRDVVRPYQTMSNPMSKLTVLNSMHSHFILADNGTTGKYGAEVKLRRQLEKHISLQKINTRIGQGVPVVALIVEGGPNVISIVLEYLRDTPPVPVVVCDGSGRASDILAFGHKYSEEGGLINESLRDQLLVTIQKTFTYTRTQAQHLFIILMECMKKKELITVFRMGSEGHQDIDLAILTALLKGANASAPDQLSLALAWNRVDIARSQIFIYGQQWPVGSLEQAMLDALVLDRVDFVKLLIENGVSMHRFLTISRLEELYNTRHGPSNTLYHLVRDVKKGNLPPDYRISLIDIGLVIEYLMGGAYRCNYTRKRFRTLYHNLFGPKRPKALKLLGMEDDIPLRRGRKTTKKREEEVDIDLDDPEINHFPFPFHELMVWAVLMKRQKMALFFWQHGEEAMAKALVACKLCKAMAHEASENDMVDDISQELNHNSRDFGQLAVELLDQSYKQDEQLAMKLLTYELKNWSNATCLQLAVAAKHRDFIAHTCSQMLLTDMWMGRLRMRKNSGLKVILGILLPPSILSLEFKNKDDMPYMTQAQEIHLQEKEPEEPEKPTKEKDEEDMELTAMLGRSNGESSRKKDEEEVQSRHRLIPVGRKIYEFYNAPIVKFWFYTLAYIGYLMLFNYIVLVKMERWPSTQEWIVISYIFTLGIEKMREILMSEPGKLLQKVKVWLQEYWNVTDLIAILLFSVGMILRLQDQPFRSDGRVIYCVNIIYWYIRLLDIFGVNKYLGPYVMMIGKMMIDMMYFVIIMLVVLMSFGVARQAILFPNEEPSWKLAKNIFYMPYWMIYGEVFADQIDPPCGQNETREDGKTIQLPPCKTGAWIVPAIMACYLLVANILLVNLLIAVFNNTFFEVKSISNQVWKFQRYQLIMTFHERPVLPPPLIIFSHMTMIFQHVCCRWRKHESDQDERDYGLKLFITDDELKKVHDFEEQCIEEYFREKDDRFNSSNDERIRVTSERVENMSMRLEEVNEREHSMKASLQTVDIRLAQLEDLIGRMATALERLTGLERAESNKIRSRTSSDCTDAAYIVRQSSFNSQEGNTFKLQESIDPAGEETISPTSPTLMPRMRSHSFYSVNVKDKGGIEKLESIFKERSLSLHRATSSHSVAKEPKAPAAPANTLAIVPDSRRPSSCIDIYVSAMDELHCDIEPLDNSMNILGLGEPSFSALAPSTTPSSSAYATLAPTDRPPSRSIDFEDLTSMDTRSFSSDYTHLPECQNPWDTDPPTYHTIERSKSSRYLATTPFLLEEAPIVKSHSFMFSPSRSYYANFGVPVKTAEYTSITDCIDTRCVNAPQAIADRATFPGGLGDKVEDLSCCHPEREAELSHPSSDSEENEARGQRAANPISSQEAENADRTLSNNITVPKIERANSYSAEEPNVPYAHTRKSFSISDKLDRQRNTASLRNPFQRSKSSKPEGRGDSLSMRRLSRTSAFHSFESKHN

| Compound | IC50 [nM] |
| --- | --- |
| Cc1oc2ccc(OCc3ccccc3)cc2c1C(=O)NC1CCCNC1 (stereo not drawn) [Cpd 075, 5-(benzyloxy)-2-methyl-N-(piperidin-3-yl)benzofuran-3-carboxamide] | < 1000 |
| Cc1oc2ccc(OCc3ccccc3)cc2c1C(=O)NC1CCN(C)C1 (stereo not drawn) [Cpd 076, 5-(benzyloxy)-2-methyl-N-(1-methylpyrrolidin-3-yl)benzofuran-3-carboxamide] | < 1000 |
| Cc1oc2ccc(OCc3ccccc3)cc2c1C(=O)NCC1CCNC1 (stereo not drawn) [Cpd 077, 5-(benzyloxy)-2-methyl-N-(pyrrolidin-3-ylmethyl)benzofuran-3-carboxamide] | 1000 to 20000 |
| Cc1oc2ccc(OCc3ccccc3)cc2c1C(=O)NCC1CCCN1 (stereo not drawn) [Cpd 078, 5-(benzyloxy)-2-methyl-N-(pyrrolidin-2-ylmethyl)benzofuran-3-carboxamide] | < 1000 |
| Cc1oc2ccc(OCc3ccccc3)cc2c1C(=O)N[C@H]1CCN(C)C1 [Cpd 079, (S)-5-(benzyloxy)-2-methyl-N-(1-methylpyrrolidin-3-yl)benzofuran-3-carboxamide] | < 1000 |
| Cc1oc2ccc(OCc3ccccc3)cc2c1C(=O)N[C@@H]1CCN(C)C1 [Cpd 080, (R)-5-(benzyloxy)-2-methyl-N-(1-methylpyrrolidin-3-yl)benzofuran-3-carboxamide] | < 1000 |
| CN1CCC(NC(=O)c2coc3ccc(OCc4ccccc4)cc23)CC1 [Cpd 081, 5-(benzyloxy)-N-(1-methylpiperidin-4-yl)benzofuran-3-carboxamide] | 1000 to 20000 |
| Cc1oc2ccc(OCc3ccccc3)cc2c1C(=O)NC1(CN)CCC1 [Cpd 082, N-(1-(aminomethyl)cyclobutyl)-5-(benzyloxy)-2-methylbenzofuran-3-carboxamide] | < 1000 |
| Cc1ccccc1COc1ccc2oc(C)c(C(=O)N[C@H]3CCNC3)c2c1 [Cpd 083, (S)-2-methyl-5-((2-methylbenzyl)oxy)-N-(pyrrolidin-3-yl)benzofuran-3-carboxamide] | < 1000 |
| Cc1cccc(COc2ccc3oc(C)c(C(=O)N[C@H]4CCNC4)c3c2)c1 [Cpd 084, (S)-2-methyl-5-((3-methylbenzyl)oxy)-N-(pyrrolidin-3-yl)benzofuran-3-carboxamide] | < 1000 |
| Cc1ccc(COc2ccc3oc(C)c(C(=O)N[C@H]4CCNC4)c3c2)cc1 [Cpd 085, (S)-2-methyl-5-((4-methylbenzyl)oxy)-N-(pyrrolidin-3-yl)benzofuran-3-carboxamide] | < 1000 |
| Cc1oc2ccc(OCc3ccccc3)cc2c1C(=O)NC1CCC(O)C1 (stereo not drawn) [Cpd 086, 5-(benzyloxy)-N-(3-hydroxycyclopentyl)-2-methylbenzofuran-3-carboxamide] | < 1000 |
| Cc1oc2ccc(OCc3ccccc3)cc2c1C(=O)NCC1CCCO1 (stereo not drawn) [Cpd 087, 5-(benzyloxy)-2-methyl-N-((tetrahydrofuran-2-yl)methyl)benzofuran-3-carboxamide] | < 1000 |
| Cc1oc2ccc(OCc3ccccc3)cc2c1C(=O)NC1CCOCC1 [Cpd 088, 5-(benzyloxy)-2-methyl-N-(tetrahydro-2H-pyran-4-yl)benzofuran-3-carboxamide] | < 1000 |
| Cc1oc2ccc(OCc3ccccc3)cc2c1C(=O)NC[C@H]1CCCO1 [Cpd 089, (R)-5-(benzyloxy)-2-methyl-N-((tetrahydrofuran-2-yl)methyl)benzofuran-3-carboxamide] | 1000 to 20000 |
| Cc1oc2ccc(OCc3ccccc3)cc2c1C(=O)NC[C@@H]1CCCO1 [Cpd 090, (S)-5-(benzyloxy)-2-methyl-N-((tetrahydrofuran-2-yl)methyl)benzofuran-3-carboxamide] | < 1000 |
| Cc1oc2ccc(OCc3ccccc3)cc2c1C(=O)NCCCN(C)C [Cpd 091, 5-(benzyloxy)-N-(3-(dimethylamino)propyl)-2-methylbenzofuran-3-carboxamide] | 1000 to 20000 |

| Compound | IC50 [nM] |
| --- | --- |
| Cc1oc2ccc(OCc3ccccc3)cc2c1C(=O)NC1(CO)COC1 [Cpd 092, 5-(benzyloxy)-N-(3-(hydroxymethyl)oxetan-3-yl)-2-methylbenzofuran-3-carboxamide] | < 1000 |
| Cc1oc2ccc(OCc3ccccc3F)cc2c1C(=O)N[C@H]1CCNC1 [Cpd 095, (S)-5-((2-fluorobenzyl)oxy)-2-methyl-N-(pyrrolidin-3-yl)benzofuran-3-carboxamide] | < 1000 |
| Cc1oc2ccc(OCc3cccc(F)c3)cc2c1C(=O)N[C@H]1CCNC1 [Cpd 096, (S)-5-((3-fluorobenzyl)oxy)-2-methyl-N-(pyrrolidin-3-yl)benzofuran-3-carboxamide] | < 1000 |
| Cc1oc2ccc(OCc3ccc(F)cc3)cc2c1C(=O)N[C@H]1CCNC1 [Cpd 097, (S)-5-((4-fluorobenzyl)oxy)-2-methyl-N-(pyrrolidin-3-yl)benzofuran-3-carboxamide] | < 1000 |
| Cc1oc2ccc(OCc3ccccc3)cc2c1C(=O)NCc1ccccc1 [Cpd 098, N-benzyl-5-(benzyloxy)-2-methylbenzofuran-3-carboxamide] | > 20000 |
| Cc1oc2ccc(OCc3ccccc3)cc2c1C(=O)NCc1ccccn1 [Cpd 099, 5-(benzyloxy)-2-methyl-N-(pyridin-2-ylmethyl)benzofuran-3-carboxamide] | 1000 to 20000 |
| Cc1oc2ccc(OCc3ccccc3)cc2c1C(=O)NCc1cccnc1 [Cpd 100, 5-(benzyloxy)-2-methyl-N-(pyridin-3-ylmethyl)benzofuran-3-carboxamide] | 1000 to 20000 |
| Cc1oc2ccc(OCc3ccccc3)cc2c1C(=O)NCc1ccncc1 [Cpd 101, 5-(benzyloxy)-2-methyl-N-(pyridin-4-ylmethyl)benzofuran-3-carboxamide] | 1000 to 20000 |
| Cc1oc2ccc(OCc3ccccc3)cc2c1C(=O)NCc1cnccn1 [Cpd 102, 5-(benzyloxy)-2-methyl-N-(pyrazin-2-ylmethyl)benzofuran-3-carboxamide] | 1000 to 20000 |
| Cc1oc2ccc(OCc3ccc(C#N)cc3)cc2c1C(=O)N[C@H]1CCNC1 [Cpd 103, (S)-5-((4-cyanobenzyl)oxy)-2-methyl-N-(pyrrolidin-3-yl)benzofuran-3-carboxamide] | 1000 to 20000 |
| Cc1oc2ccc(OCc3ccccc3)cc2c1C(=O)NCc1ccnn1C [Cpd 104, 5-(benzyloxy)-2-methyl-N-((1-methyl-1H-pyrazol-5-yl)methyl)benzofuran-3-carboxamide] | < 1000 |
| Cc1cc(CNC(=O)c2c(C)oc3ccc(OCc4ccccc4)cc23)no1 [Cpd 105, 5-(benzyloxy)-2-methyl-N-((5-methylisoxazol-3-yl)methyl)benzofuran-3-carboxamide] | < 1000 |
| Cc1oc2ccc(OCc3ccccc3)cc2c1C(=O)NC1CCC(C)CC1 (stereo not drawn) [Cpd 106, 5-(benzyloxy)-2-methyl-N-(4-methylcyclohexyl)benzofuran-3-carboxamide] | > 20000 |
| Cc1oc2ccc(OCc3ccccc3)cc2c1C(=O)N[C@@H]1CCCNC1=O [Cpd 107, (R)-5-(benzyloxy)-2-methyl-N-(2-oxopiperidin-3-yl)benzofuran-3-carboxamide] | < 1000 |
| Cc1oc2ccc(OCc3ccccc3)cc2c1C(=O)NC1CCNC(=O)C1 (stereo not drawn) [Cpd 108, 5-(benzyloxy)-2-methyl-N-(2-oxopiperidin-4-yl)benzofuran-3-carboxamide] | 1000 to 20000 |
| Cc1oc2ccc(OCc3ccccc3)cc2c1C(=O)N[C@H]1CCCNC1=O [Cpd 109, (S)-5-(benzyloxy)-2-methyl-N-(2-oxopiperidin-3-yl)benzofuran-3-carboxamide] | < 1000 |
